Measurements reported in patent US6866858B2, “Method and compositions for attracting mosquitoes” (BioSensory, Inc., priority 2000, dated 2005).
Values joined by “and” are separate entries in the source; they are usually repeats but may differ in a detail not shown here. Identical values can stand only once.

Tested on: Aedes taeniorhyncus mosquitoes
Assay: Outdoor screened cage mosquito capture test with CO2 collection jar and attractant
Format: in vivo
Conditions: for Average captured: average of three replicate tests; for Average captured / Total captured: 250 μL attractant + 500 cc/min CO2, 1000 mosquitoes per test; for Mosquitoes captured: single replicate test, 250 μL attractant on fibrous absorbent in CFG 6 jar with 500 cc/min CO2, 1000 mosquitoes introduced, after several hours; for Total captured: sum of three replicate tests; for Average increase in capture over control: versus CO2-only control (average 334 captured)
Experimental: The following tests were conducted by the United States Department of Agriculture in Florida in a large outdoor screened cage of a size of approximately 30 ft.×60 ft.×20 ft. (9.144×18.288×6.096 meters). Into approximately the center of the base of the cage was placed a CFG 6 Collection Jar of American Biophysics providing 500 cc/min CO2. Also placed in the CFG-6 Jar was a fibrous absorbent into which had been absorbed 250 μL of the test attractant compound. There were then introduced into the cage, from the periphery thereof, 1000 Aedes taeniorhyncus mosquitoes. After a period of several hours the collection jar was examined to determine the number of mosquitoes captured. As controls, similar tests were run with the CF 6 Collection jar without any attractant compound, i.e. with only CO2. Three replicate tests were run with each test attractant compound. The compound 1-octyn-3-ol was employed as the attractant compound of this invention and 1-octenol as an example of a prior art attractant.

SMILES | Average captured | Mosquitoes captured | Total captured | Average increase in capture over control | more mosquitoes captured than the prior art 1-octen-3-ol attractant (compared with 1-octen-3-ol in the same test)
C=CC(O)CCCCC (stereo not drawn) [1-octen-3-ol, reference compound] | Average captured: 568 | 624 and 560 and 520 | 1704 | Average increase in capture over control: 234 | 
C#CC(O)CCCCC (stereo not drawn) [1-octyn-3-ol] | Average captured: 735 | 779 and 599 and 826 | 2204 | Average increase in capture over control: 401 | over 71%
